Article PMC7395068, “The evolution of strategies to minimise the risk of human drug-induced liver injury (DILI) in drug discovery and development” (Archives of Toxicology, 2020)
Where two headings read alike, the source gives them in different places.

How the values were obtained:
[1] = cited from earlier work
[2] = tested on: primary human hepatocytes, NIH3T3 fibroblasts, BSEP, CYP3A4; settings: cited from earlier work
HepG2 cells [3] = settings: cited from earlier work
human hepatocytes = settings: cited from earlier work
PHH [4] = settings: cited from earlier work
hLiMTs [5] = settings: cited from earlier work
PHH spheroids = settings: In vitro Assay; ref Vorrink 2018; cited from earlier work
[6] = tested on: HepG2 C3A spheroid, BSEP, Glu/Gal in HepG2 cells, bioactivation; settings: cited from earlier work
[7] = cited from earlier work; remark: listed apart in the source
hu-MPCC = settings: cited from earlier work
[8] = tested on: HepG2 cells, primary human hepatocytes; settings: cited from earlier work
[9] = cited from earlier work; remark: listed apart in the source
RMPCC's = settings: cited from earlier work
HepG2 = tested on: HepG2; design: method as in Albrecht 2019; settings: In vitro Assay; ref Albrecht 2019; cited from earlier work
HepG2 cells [10] = settings: cited from earlier work; remark: listed apart in the source
PHH [11] = settings: In vitro Assay; ref Albrecht 2019; cited from earlier work
[12] = tested on: isolated mouse liver mitochondria; settings: In vitro Assay; ref Porceddu 2012; cited from earlier work
[13] = Plasma free fraction (fu) and unbound Cmax (Cmax,u); type: in vitro ADME, human; settings: human
Description: The prediction of DILI severity was evaluated further using the 3D combined HCI assays using plasma-free fraction. The majority of fu values were obtained from literature, when unavailable in-house prediction was utilised. Unbound plasma Cmax concentrations (Cmax,u) were derived by multiplying total plasma Cmax with the corresponding free fraction (fu) for each compound.

hLiMTs [14] = tested on: hLiMTs
HepaRG spheroids [15] = tested on: HepaRG spheroids
HepG2 cells [16] = settings: cited from earlier work; remark: listed apart in the source
[17] = tested on: THLE or HepG2 cells, isolated mitochondria, BSEP; settings: cited from earlier work
[18] = human, in vivo; cited from earlier work
hLiMTs [19] = test: Combined HCI (HCS) and cellular ATP 3D assay in hLiMTs; settings: Homo sapiens
HepaRG spheroids [20] = test: Combined HCI (HCS) and cellular ATP 3D assay in HepaRG spheroids; settings: Homo sapiens, HepaRG
[21] = In vitro Assay, ref Schadt 2015
[22] = In vitro Assay, ref O'Brien 2006
[23] = In vitro Assay, ref Khetani 2012
[24] = In vitro Assay, ref Proctor 2017

CNCCC(Oc1ccc(C(F)(F)F)cc1)c1ccccc1 (stereo not shown) [fluoxetine]
DILI +VE (5-8), DILI -VE (-4) ([1]; ref Chen 2016): +VE
DILI severity category ([1]; ref Chen 2016): vLess-DILI-Concern
Cellular toxicity (3T3 cells) [2, 21]: +VE
Combined Assay [2, 21]: -VE
GSH adduct HML [2, 21]: -VE
Hepatocyte cellular toxicity [2, 21]: -VE
MitoTox 3T3 [2, 21]: -VE
TDI CYP3A4 [2, 21]: -VE
hBSEP inhibition [2, 21]: -VE
Cluser analysis (HepG2 cells [3]): +VE
Structural based (HCI) (human hepatocytes): -VE
PHH ATP <100uM (PHH [4]): -VE
hLiMTs ATP <100uM (hLiMTs [5]): +VE (key: +VE: IC50 threshold of 100 µM)
hLiMTs ATP <20 x Cmax (PHH spheroids): -VE
Bayesian Machine Learning [6]: +VE
In vivo DILI ([7]; […]): -VE
In vivo DILI ([7]; ref Aleo 2019): +VE
In vivo DILI ([7]; ref Garside 2014): +VE
In vivo DILI ([7]; ref Khetani 2012): -VE
In vivo DILI ([7]; ref Persson 2013): +VE
In vivo DILI ([7]; ref Proctor 2017): +VE
In vivo DILI ([7]; ref Schadt 2015): -VE
In vivo DILI ([7]; ref Tolosa 2012): +VE
In vivo DILI ([7]; ref Vorrink 2018): -VE
In vivo DILI ([7]; ref Williams 2019): +VE
In vivo DILI ([7]; ref Xu 2008): -VE
HMPCC's (hu-MPCC): -VE
Cluster 1-6 +VE Assay [8]: +VE
DILI Score (FDA) (1-8) ([9]; ref Chen 2011): 3
RMPCC's (RMPCC's): -VE

CCCCC1C(=O)N(c2ccccc2)N(c2ccccc2)C1=O [phenylbutazone]
Cytotoxicity HepG2 48 hrs (HepG2): +VE
Structural based (HCI) (HepG2 cells [10]; [22]): +VE
In vivo DILI ([7]; in vivo): +VE
Cytotoxicity PHH 48 hrs (PHH [11]): +VE
HMPCC's (hu-MPCC; [23]): +VE
in vitro data EC2<=1x Cmax [12]: +VE
RMPCC's (RMPCC's; [23]): +VE

O=P1(N(CCCl)CCCl)NCCCO1 (stereo not shown) [cyclophosphamide, reference compound]
Human plasma Cmax,u [13]: 114.400 µM
DILI prediction hLiMTs (HCS-MEC) (hLiMTs [14]): +VE (key: +VE: MEC < 25 × Cmax.tot cut-off)
hLiMTs <10 uM All (hLiMTs [14]): -ve
hLiMTs <100x Avg Cmaxu ATP (hLiMTs [14]; human): +ve (key: +ve: <100x Avg Cmaxu)
hLiMTs <100x Avg Cmaxu All (hLiMTs [14]; human): +ve (key: +ve: <100x Avg Cmaxu)
hLiMTs <100x Avg Cmaxu HCS (hLiMTs [14]; human): +ve (key: +ve: <100x Avg Cmaxu)
hLiMTs Cmax max All (hLiMTs [14]; human): +ve
hLiMTs Cmax min All (hLiMTs [14]; human): -ve
DILI prediction HepaRG spheroids (HCS-MEC) (HepaRG spheroids [15]): +VE (key: +VE: MEC < 25 × Cmax.tot cut-off)
HepaRG <10 uM All (HepaRG spheroids [15]): -ve
HepaRG <100x Avg Cmaxu ATP (HepaRG spheroids [15]; human): +ve (key: +ve: <100x Avg Cmaxu)
HepaRG <100x Avg Cmaxu All (HepaRG spheroids [15]; human): +ve (key: +ve: <100x Avg Cmaxu)
HepaRG <100x Avg Cmaxu HCS (HepaRG spheroids [15]; human): +ve (key: +ve: <100x Avg Cmaxu)
HepaRG Cmax max All (HepaRG spheroids [15]; human): +ve
HepaRG Cmax min All (HepaRG spheroids [15]; human): -ve
DILI +VE (5-8), DILI -VE (-4) ([1]; in vivo): +VE
DILI severity category (Chen et al. [2016]) ([1]; in vivo): Less
Cellular toxicity (3T3 cells) [2]: -VE
DILI in vitro assay prediction, Schadt (2015) [2]: -VE
GSH adduct HML [2]: -VE
Hepatocyte cellular toxicity [2]: -VE
MitoTox 3T3 [2]: -VE
TDI CYP3A4 [2]: -VE
hBSEP inhibition [2]: -VE
DILI in vitro assay prediction, O'Brien (2006) (HepG2 cells [10]): +VE (key: +VE: lowest HCI endpoint IC50 (or in the absence of dose–response < 100 µM) < 30 × total human plasma exposure levels (Cmax.tot))
Structural based (HCI) (HepG2 cells [10]): +VE
DILI in vitro assay prediction, Tolosa (2012) (HepG2 cells [16]): -VE
Structural based (HCI) (HepG2 cells [16]): +VE
DILI in vitro assay prediction, Xu (2008) (human hepatocytes): -VE
Structural based (HCI) (human hepatocytes): -VE
Partition Hybrid HRM Score [17]: -VE
Partition Hybrid HRM Score ≥4, Aleo (2019) [17]: -VE
Partition Hybrid HRM Score ≥8, Aleo (2019) [17]: -VE
Ro2 Hybrid HRM Score [17]: -VE
Rule of Two hybrid HRM Score ≥3, Aleo (2019) [17]: -VE
Rule of Two hybrid HRM Score ≥8, Aleo (2019) [17]: -VE
PHH ATP <100uM (PHH [4]): -VE
PHH/100uM, Proctor (2017) (PHH [4]): -VE
hLiMTs ATP <100uM (hLiMTs [5]): -VE
hLiMTs/100uM, Proctor (2017) (hLiMTs [5]): -VE
Cmax [18]: 143 µM
Assigned DILI category ([7]; in vivo): 2
HMPCC's (hu-MPCC): +VE
DILI Score (FDA) (1-8) ([9]; in vivo): 5
RMPCC's (RMPCC's): +VE
AC50 (hLiMTs [19]; read-out: ATP endpoint AC50): 906 µM
minimal effective concentration (hLiMTs [19]; read-out: ATP endpoint MEC): 613 µM
AC50 (hLiMTs [19]; read-out: HCS endpoint AC50): 992 µM
minimal effective concentration (hLiMTs [19]; read-out: HCS endpoint MEC): 236 µM
AC50 (HepaRG spheroids [20]; read-out: ATP endpoint AC50): 0.419 mM
minimal effective concentration (HepaRG spheroids [20]; read-out: ATP endpoint MEC): 229 µM
AC50 (HepaRG spheroids [20]; read-out: HCS endpoint AC50): 1.86 mM
minimal effective concentration (HepaRG spheroids [20]; read-out: HCS endpoint MEC): 340 µM

C[C@H](CS)C(=O)N1CCC[C@H]1C(=O)O [captopril]
DILI +VE (5-8), DILI -VE (-4) ([1]; in vivo): +VE
DILI severity category ([1]; in vivo): vLess-DILI-Concern
Structural based (HCI) (HepG2 cells [10]): +VE
Structural based (HCI) (HepG2 cells [16]): +VE
Structural based (HCI) (human hepatocytes): -VE
Ro2 Hybrid HRM Score [17]: -VE
Bayesian Machine Learning [6]: +VE
In vivo DILI ([7]; in vivo): +VE
HMPCC's (hu-MPCC): -VE
RMPCC's (RMPCC's): -VE

CN(C)CCCN1c2ccccc2CCc2ccccc21 [imipramine]
DILI +VE (5-8), DILI -VE (-4) ([1]; ref Chen 2016): +VE
DILI severity category ([1]; ref Chen 2016): vLess-DILI-Concern
Structural based (HCI) (HepG2 cells [10]; [22]): +VE
Structural based (HCI) (HepG2 cells [3]; In vitro Assay, ref Persson 2013): +VE
Structural based (HCI) (HepG2 cells [16]; In vitro Assay, ref Tolosa 2012): +VE
Ro2 Hybrid HRM Score ([17]; In vitro Assay, ref Aleo 2019): +VE
PHH ATP <100uM (PHH [4]; [24]): +VE (IC50 threshold of 100 µM)
hLiMTs ATP <100uM (hLiMTs [5]; [24]): +VE (IC50 threshold of 100 µM)
hLiMTs ATP <20 x Cmax (PHH spheroids): +VE (IC20 < 20 × Cmax.tot cut-off)
Bayesian Machine Learning ([6]; In vitro Assay, ref Williams 2019): +VE
In vivo DILI ([7]; […]): +VE
In vivo DILI ([7]; ref Aleo 2019): +VE
In vivo DILI ([7]; ref Garside 2014): +VE
In vivo DILI ([7]; ref Khetani 2012): +VE
In vivo DILI ([7]; ref O'Brien 2006): +VE
In vivo DILI ([7]; ref Persson 2013): +VE
In vivo DILI ([7]; ref Porceddu 2012): +VE
In vivo DILI ([7]; ref Proctor 2017): +VE
In vivo DILI ([7]; ref Schadt 2015): -VE
In vivo DILI ([7]; ref Tolosa 2012): +VE
In vivo DILI ([7]; ref Vorrink 2018): +VE
In vivo DILI ([7]; ref Williams 2019): +VE
In vivo DILI ([7]; ref Xu 2008): +VE
HMPCC's (hu-MPCC; [23]): +VE
in vitro data EC2<=1x Cmax [12]: -VE
in vitro data EC20<=2uM [12]: +VE
RMPCC's (RMPCC's; [23]): -VE
